“And” between values parts separate entries of the source, which are not always exact repeats. Equal entries are not always repeated. Structures can show the parent of a compound that is named as a salt.
Experiments:
Sprague-Dawley rats = assay: Antinociceptive activity, cold ethanol tail-flick test after oral gavage; assay type: in vivo, rat; conditions: for Analgesia (rat): oral gavage in sesame oil, 60 uM/kg, one dose, tail-flick at −20° C., cutoff 40 seconds; for analgesia in rats, in words: given orally, compared with equivalent dose of Nalbuphine (parent opioid)
[1] = Stability in human plasma; conditions: 37° C., acceptance criteria: NLT than 20% of hydrolysis after 4 hrs
[2] = Stability in the simulated gastro-intestinal fluid (sGIF); conditions: 0.5% pepsine in 0.1N aqueous HCl, 37° C.; acceptance: NLT 80% of the derivative still intact after 4 hrs
rats = assay: Randall-Selitto test after SC dose; assay type: in vivo, rat; conditions: NB-33.HCl 3.9 mg/kg; for Randall-Selitto (g), individual animal: NB.HCl 3 mg/kg; for Randall-Selitto (g), Mean: mean of 5, NB.HCl 3 mg/kg
From the text: FIG. 13 illustrate in the graphical form the results for 1310 NB-33, marked 1310, in comparison to the base NB compound NB, marked 1320 in FIG. 13.

Structure (SMILES)	Analgesia (rat) (Sprague-Dawley rats)	Stable in plasma [1]	Stable in sGIF [2]	analgesia in rats, in words (Sprague-Dawley rats)	also measured
CC(C)=CCC/C(C)=C/COc1ccc2c3c1OC1C(O)CCC4(O)C(C2)N(CC2CCC2)CCC314 (stereo not shown) [NB-20, (E)-3-(cyclobutylmethyl)-9-((3,7-dimethylocta-2,6-dien-1-yl)oxy)-1,2,3,4,5,6,7,7a-octahydro-4aH-4,12-methanobenzofuro[3,2-e]isoquinoline-4a,7-diol]	No	No	No	–	–
CC(C)=CCC/C(C)=C/CC/C(C)=C/COc1ccc2c3c1OC1C(O)CCC4(O)C(C2)N(CC2CCC2)CCC314 (stereo not shown) [NB-28, 3-(cyclobutylmethyl)-9-(((2E,6E)-3,7,11-trimethyldodeca-2,6,10-trien-1-yl)oxy)-1,2,3,4,5,6,7,7a-octahydro-4aH-4,12-methanobenzofuro[3,2-e]isoquinoline-4a,7-diol]	No	No	No	–	–
C=CCCCCCCCCC(=O)Oc1ccc2c3c1OC1C(O)CCC4(O)C(C2)N(CC2CCC2)CCC314 (stereo not shown) [NB-31, 3-(cyclobutylmethyl)-4a,7-dihydroxy-2,3,4,4a,5,6,7,7a-octahydro-1H-4,12-methanobenzofuro[3,2-e]isoquinolin-9-yl undec-10-enoate]	Inactive	No	Yes	no analgesia	–
CC(C)=CCC/C(C)=C/C(=O)Oc1ccc2c3c1OC1C(O)CCC4(O)C(C2)N(CC2CCC2)CCC314 (stereo not shown) [NB-32, 3-(cyclobutylmethyl)-4a,7-dihydroxy-2,3,4,4a,5,6,7,7a-octahydro-1H-4,12-methanobenzofuro[3,2-e]isoquinolin-9-yl (E)-3,7-dimethylocta-2,6-dienoate]	Inactive	No	Yes	no analgesia	–
CC(C)C(=O)Oc1ccc2c3c1OC1C(O)CCC4(O)C(C2)N(CC2CCC2)CCC314 (stereo not shown) [NB-46, 3-(cyclobutylmethyl)-4a,7-dihydroxy-2,3,4,4a,5,6,7,7a-octahydro-1H-4,12-methanobenzofuro[3,2-e]isoquinolin-9-yl isobutyrate]	No	Yes	Yes	–	–
CC(C)=CC(=O)Oc1ccc2c3c1OC1C(O)CCC4(O)C(C2)N(CC2CCC2)CCC314 (stereo not shown) [NB-51, 3-(cyclobutylmethyl)-4a,7-dihydroxy-2,3,4,4a,5,6,7,7a-octahydro-1H-4,12-methanobenzofuro[3,2-e]isoquinolin-9-yl 3-methylbut-2-enoate]	Inactive	No	Yes	–	–
C/C=C(\C)C(=O)Oc1ccc2c3c1OC1C(O)CCC4(O)C(C2)N(CC2CCC2)CCC314 (stereo not shown) [NB-52, 3-(cyclobutylmethyl)-4a,7-dihydroxy-2,3,4,4a,5,6,7,7a-octahydro-1H-4,12-methanobenzofuro[3,2-e]isoquinolin-9-yl (E)-2-methylbut-2-enoate]	Inactive	No	Yes	no analgesia	–
CC=C(OC)C(=O)Oc1ccc2c3c1OC1C(O)CCC4(O)C(C2)N(CC2CCC2)CCC314 (stereo not shown) [NB-58, 3-(cyclobutylmethyl)-4a,7-dihydroxy-2,3,4,4a,5,6,7,7a-octahydro-1H-4,12-methanobenzofuro[3,2-e]isoquinolin-9-yl 2-methoxybut-2-enoate]	No	No	No	–	–
C/C=C/C=C/C(=O)Oc1ccc2c3c1OC1C(OC(C)=O)CCC4(O)C(C2)N(CC2CCC2)CCC314 (stereo not shown) [NB-76, 7-acetoxy-3-(cyclobutylmethyl)-4a-hydroxy-2,3,4,4a,5,6,7,7a-octahydro-1H-4,12-methanobenzofuro[3,2-e]isoquinolin-9-yl (2E,4E)-hexa-2,4-dienoate]	moderate	No	Yes	–	–
O=C(/C=C/c1ccccc1)Oc1ccc2c3c1OC1C(O)CCC4(O)C(C2)N(CC2CCC2)CCC314 (stereo not shown) [NB-78, 3-(cyclobutylmethyl)-4a,7-dihydroxy-2,3,4,4a,5,6,7,7a-octahydro-1H-4,12-methanobenzofuro[3,2-e]isoquinolin-9-yl cinnamate]	Inactive	No	Yes	no analgesia	–
Oc1ccc2c3c1O[C@H]1[C@@H](O)CC[C@@]4(O)[C@@H](C2)N(CC2CCC2)CC[C@]314 [NB.HCl]	–	–	–	–	Randall-Selitto (g), individual animal (rats; Post-dose 0.5 hr): 78 g and 89 g and 93 g and 107 g and 134 g; Randall-Selitto (g), Mean (rats; Post-dose 0.5 hr): 100.2 g; Randall-Selitto (g), individual animal (rats; Post-dose 1 hr): 63 g and 62 g and 92 g and 90 g and 96 g; Randall-Selitto (g), Mean (rats; Post-dose 1 hr): 80.6 g; Randall-Selitto (g), individual animal (rats; Post-dose 2 hr): 58 g and 71 g and 103 g and 69 g and 93 g; Randall-Selitto (g), Mean (rats; Post-dose 2 hr): 78.8 g; Randall-Selitto (g), individual animal (rats; Post-dose 4 hr): 64 g and 66 g and 93 g (2×) and 61 g; Randall-Selitto (g), Mean (rats; Post-dose 4 hr): 75.4 g; Randall-Selitto (g), individual animal (rats; Post-dose 6 hr): 50 g and 71 g and 82 g and 69 g and 85 g; Randall-Selitto (g), Mean (rats; Post-dose 6 hr): 71.4 g; Randall-Selitto (g), individual animal (rats; Pre-treatment (baseline)): 89 g and 92 g and 100 g and 80 g and 91 g; Randall-Selitto (g), Mean (rats; Pre-treatment (baseline)): 90.4 g
